In patent US12071624B2, “Antisense oligonucleotide targeting ARL4C molecule, and nucleic acid drug using antisense oligonucleotide” (OSAKA UNIVERSITY, priority 2018, dated 2024):

How the values were obtained:
[1] = tested on: ARL4C mRNA; assay: Screening of ARL4C ASO knockdown efficiency by real-time PCR in A549 cells; type: cell-based, human; conditions: screening of 38 types of ARL4C ASOs
Procedure: (§1) HLE cells, HCT116 cells, and A549 cells were transfected with 25 to 50 nM ASO and 10 to 20 nM siRNA using Lipofectamine 3000 (Invitrogen, Carlsbad, CA, USA) or RNAiMAX (Invitrogen). Transfected cells were used in the experiments 36 to 48 hours after the end of the transfection.
(§2) Cell migration assays and quantitative real-time PCR analyses were performed according to the methods reported by Fujii S et al. (Oncogene 2015; 34: 4834-44).
First, base sequences of 15-nucleotide ARL4C were selected based on the structure of ARL4C mRNA. From thousands of ARL4C ASO candidates, those that may cause hepatotoxicity were excluded, and 38 types of ARL4C ASOs (those other than ASO-1312, ASO-1450 and ASO-3223 among the ASOs in Table 1) were selected, by high-dimensional structure prediction of ARL4C mRNA. The ASOs used in this test were those in which all of the phosphodiester bonds were substituted with phosphorothioate bonds. Knockdown efficiencies of ARL4C ASOs in A549 cells (lung adenocarcinoma cells) were investigated by screening experiments using real-time PCR. It has been confirmed that the protein abundance of ARL4C in A549 cells is reduced by treatment with ARL4C siRNA. The ARL4C mRNA amounts in A549 cells treated with 38 types of ARL4C ASOs were measured, and the results are shown in (a) of FIG. 3.

[2] = tested on: ARL4C mRNA; assay: ARL4C mRNA amount by real-time PCR in HCT116 cells; type: cell-based, human; conditions: HCT116 cells transfected at 25 nM
Procedure: as §1, §2
HLE cells and HCT116 cells were transfected with the above-described seven types of ARL4C ASOs and the control ASO at 25 nM, and the ARL4C mRNA amounts were measured by real-time PCR; the results thereof are shown in (a) of FIG. 4. […] In order to optimize the effect of these three types of ARL4C ASOs, four bases were added to each of these three types of ARL4C ASOs, whereby ASO-1312, ASO-1450, and ASO-3223 each of which consisted of 19 bases were produced. With these six types of ARL4C ASOs (ASO-1316, ASO-1312, ASO-1454, ASO-1450, ASO-3225, and ASO-3223), the knockdown effect on ARL4C was further studied.

For “ASO-1316: 15-mer AmNA/phosphorothioate ASO targeting ARL4C, base sequence SEQ ID NO: 1 gcatacctcaggtaa; Table 1 SEQ ID NO 13 (antisense GCATACCTCAGGTAA; AmNA and phosphorothioate modified, pattern not given here)”, which “knockdown efficiency (ARL4C mRNA amount)” value [1] is on record?
The value was “high knockdown efficiencies”.

What about the “ARL4C mRNA amount” value [2] of the same substance?
Its value is “reduced the ARL4C mRNA amount”.
